From patent US7973219B2, “Method for producing transgenic plants resistant to weed control compounds which disrupt the porphyrin pathways of plants” (Sumitomo Chemical Company, Limited, priority 1998, dated 2011) come the findings set out here.

The structures appear in SMILES notation.

Assay [1] relates to E. coli BT3/pACYCSP+pTVGMP strain. As to the kind of experiment: Growth of E. coli BT3/pACYCSP+pTVGMP (variant soybean PPO) with herbicidal compound. Type of assay: cell-based, Escherichia coli. Conditions: 18 hours culture, Table 7. The source says: (§1) According to the description of Gibson, L. C. D. et al., Proc. Natl. Acad. Sci. USA, 92; p 1941 (1995), the DNA fragment containing bchH gene prepared in Example 1 was digested with the restriction enzymes NdeI and BglII. The resultant DNA fragment was inserted between NdeI restriction site and BamHI restriction site of expression vector pET11a (manufactured by Stratagene) to obtain plasmid pETBCH (FIG. 1). This plasmid pETBCH was introduced into E. coli BL21(DE3) strain competent cells (manufactured by Stratagene) according to the manual attached to the competent cells to obtain E. coli BL21(DE3)/pETBCH strain. The strain was inoculated into 1.5 ml LB liquid culture medium (1% tryptone, 0.5% yeast extract, 0.5% NaCl) containing 100 μg/ml ampicillin in a tube (14×10 mm), and the tube was covered with aluminum foil (hereinafter referred to as dark conditions), cultured with shaking at 37° C. under light of fluorescent lamp (about 8000 lux). When the absorbance at 600 nm of the liquid culture medium became about 0.6, isopropyl β-D-thiogalactopyranoside (IPTG) was added to the liquid culture medium so that the final concentration was 0.4 mM, and the culture was continued for about additional 20 hours. […] In contrast to this, when E. coli BL21(DE3)/pETBCH strain was cultured according to the same manner (with IPTG) except that the tube was not covered with aluminum foil (hereinafter referred to as light conditions), E. coli grew and turned red as above.
Plasmids pTVGMP and pTV118N prepared in Example 11 were introduced into E. coli BT3/pACYCSP strain prepared in Example 3 respectively according to the method described in Flanahan, D. J., Mol. Biol., 166; p 557 (1983). E. coli BT3/pACYCSP+pTVGMP strain bearing plasmids pACYCSP and pTVGMP, and E. coli BT3/pACYCSP+pTV118N strain bearing plasmids pACYCSP and pTV118N were obtained by culturing the above strains in YPT medium containing 100 μg/ml ampicillin, 15 μg/ml chloramphenicol and 10 μg/ml kanamycin.
(§2) These E. coli strains were inoculated into YPT medium containing 10 or 1 ppm of PPO inhibitory-type herbicidal compound represented by Structure 8, 100 (ig/ml ampicillin, 15 μg/ml chloramphenicol, 10 μg/ml kanamycin, 10 μg/ml hemin and 50 μg/ml aminolevulinic acid, cultured under dark conditions or light conditions according to the same manner as in Example 2. Then, 18 hours after initiation of culture, the absorbance of liquid culture medium was measured at 600 nm. By taking the absorbance of the medium without the herbicidal compound as 1, the relative value of the absorbance of the medium containing the herbicidal compound was calculated.

The subject of assay [2] is E. coli BT3/pACYCSP+pTCHLH1 strain. As to the kind of experiment: Growth of E. coli BT3/pACYCSP+pTCHLH1 (variant tobacco chelatase subunit) with herbicidal compound. Conditions: 18 hours culture, Table 6. Type of assay: cell-based, Escherichia coli.
Text: as §1
The plasmid pTCHLH1 and pCR2.1 prepared in Example 7 were introduced into E. coli BT3/pACYCSP strain prepared in Example 3, respectively according to the method described in Hanahan, D. J., Mol. Biol., 166; p 557 (1983). E. coli BT3/pACYCSP+pTCHLH1 strain bearing plasmids pACYCSP and pTCHLH1, and E. coli BT3/pACYCSP+pCR2.1 strain bearing plasmids pACYCSP and pCR2.1 were obtained by culturing the above strains in YPT medium containing 100 μg/ml ampicillin, 15 μg/ml chloramphenicol and 50 μg/ml kanamycin, respectively.
as §2, with “ppm of the PPO inhibitory-type” for “ppm of PPO inhibitory-type”, “8, 100 μg/ml ampicillin, 15” for “8, 100 (ig/ml ampicillin, 15”, “μg/ml chloramphenicol, 50 μg/ml kanamycin,” for “μg/ml chloramphenicol, 10 μg/ml kanamycin,”, “absorbance of the liquid culture” for “absorbance of liquid culture”

As for `C#CCOc1cc(N2C(=O)C3=C(CCCC3)C2=O)c(F)cc1Cl` [Structure 8], the Relative absorbance in assay [1] (in the dark, 1 ppm) is recorded as 0.94; in assay [1] (in the dark, 10 ppm) it was 0.91; in assay [1] (in the light, 1 ppm), 0.85; in assay [1] (in the light, 10 ppm), 0.33; in assay [2] (in the dark, 1 ppm) it was 0.93; in assay [2] (in the dark, 10 ppm), 0.92. Moreover, the Relative absorbance was 0.89 in assay [2] (in the light, 1 ppm) and 0.69 in assay [2] (in the light, 10 ppm).
